Results: patent US8895037B2, “Administation of ellagic acid for the treatment of canities” (L'Oreal, priority 2006, dated 2014)

Key:
[1] = system: normal human melanocytes (NHMs); experiment: Accelerated senescence induced in vitro by a chronic H2O2 stress, viability by Alamar Blue; type: cell-based; details: for % relative to the control / average fluorescence: Alamar Blue on D7
Protocol: 1-C-1. Protocol for accelerated senescence induced in vitro by a chronic H2O2 stress:
(According to O. Toussaint, E. E. Medrano and T. von Zglinicki, Experimental Gerontology 2000, 35, 927-945).
The normal human melanocytes (NHMs) were inoculated at D0 at the density of 0.8×10^4 cells/cm^2. After adhesion of the cells (3 h) the active agent studied was added to the culture medium. H2O2 (250 μM) was added to the culture medium over 1 hour, at D1, D2 and D3. In addition, the culture medium was renewed every two days without addition of stress. On D7, the number of viable cells was measured using Alamar Blue (UP669413 UPTIMA, Interchim) according to the instructions of the supplier.

[2] = system: normal human melanocytes (NHMs); experiment: Reactive oxygen species (ROS) generated by an H2O2 stress in cultured normal human melanocytes; type: cell-based; details: NHM pretreated 12 h/18 h, 250 μM H2O2, fluorescence after 15 min; FIG. 1
Protocol: 1-A-1. Protocol for measuring the reactive oxygen species (ROS) generated by an H2O2 stress in cultured normal human melanocytes (NHMs) The normal human melanocytes (NHMs) were inoculated at D0 at the density of 4×10^4 cells/cm^2. At D1, the culture medium was replaced with the 10 μM solution of 6-carboxy-2',7'-dichlorodihydrofluorescein diacetate, di[acetoxymethyl ester] in PBS (H2DCFDA, C2938, Molecular Probes). After 20 min the H2DCFDA solution was replaced with the culture medium. The NHMs were left for 30 min before adding the H2O2 solution (250 μM). The fluorescence was measured after 15 min in a fluoroscan (excitation: 485 nm, emission: 538 nm). The compounds studied were used depending on their properties (concentration, preincubation time). N-Acetylcysteine ([…], Sigma) was used as a reference molecule. The melanocytes were pretreated, 12 h/18 h at 37° C., with the compound studied in the culture medium, before being brought into contact for 20 minutes with H2DCFDA (10 μM in PBS). […] The fluorescence was measured after 15 min in a fluoroscan (excitation: 485 nm, emission: 538 nm). The results represent the crude fluorescence data, from which the autofluorescence values of “blank” cells, expressed in fluorescence units (fu), obtained during a representative experiment, have been deducted.

[3] = (no treatment, NAC, EA), chronic H2O2 250 μM at D1, D2, D3

Structure (SMILES): CC(=O)N[C@@H](CS)C(=O)O [NAC, N-Acetylcysteine, reference compound]
- % relative to the control ([1]; (Control, NAC, EA)): 106%
- average fluorescence ([1]; (Control, NAC, EA)): 8056.00
- % relative to the control [1, 3]: 38%
- average fluorescence [1, 3]: 2869.00

Structure (SMILES): O=c1oc2c(O)c(O)cc3c(=O)oc4c(O)c(O)cc1c4c23 [ellagic acid, 2,3,7,8-tetrahydroxy(1)benzopyrano(5,4,3-CDE)(1)benzopyran-5,10-dione]
- reactive oxygen species induced by H2O2 (fluorescence, H2DCFDA) [2]: decrease of the reactive oxygen species
- % relative to the control ([1]; (Control, NAC, EA)): 97%
- average fluorescence ([1]; (Control, NAC, EA)): 7343.67
- % relative to the control [1, 3]: 39%
- average fluorescence [1, 3]: 2934.00
- viability after accelerated senescence induced by chronic H2O2 stress ([1]; NHM, H2O2 250 μM at D1, D2, D3, read on D7, FIG. 3): significant increase in viability
